Data as given in US20050239715A1, “Inhibition of allergic contact dermatitis by N-L-alpha-aspartyl-L-phenylalanine 1-methyl ester” (priority 2004, published 2005).
Residues, ends and D or L forms follow the SMILES beside them.

Legend:
[1] = system: Urushiol-Induced Dermatitis on Human Skin; test: Example 3: treatment and prevention of urushiol-induced dermatitis on human skin (Patient 1); assay type: in vivo; conditions: topical lotion 0.5 to 1 mg APM/ml, two to three times per day, also two packets Equal by mouth
Method: The goats frequently consumed and were in contact with both poison sumac and poison ivy abundant in their enclosure without experiencing symptoms.
A topical APM preparation was made by mixing 2 to 3 packets of Equal® brand sweetner (80-120 mg of APM) with approximately 170 ml (5.5 fluid ounces) of lotion containing Vaseline® Intensive Care® Water Resistant Moisturizing Lotion (Unilever United States, Inc.), resulting in a lotion with 0.5 to 1 mg APM/ml. Patient 1 had previously used the lotion base without effect. Patient 1 also took two packets of Equal® brand sweetener by mouth in response to a symptom of diarrhea, a condition known to be associated with urishiol.
A soap and water scrub of the affected area was done one hour after application of the cream, and the affected area allowed to air dry.
Additional affected areas were then discovered on Patient 1, and a lotion was prepared for Patient 1 to use on these areas as well as unaffected areas that could come in contact with poison ivy during their work. Patient 1 used additional topical APM preparation approximately two to three times per day.

[2] = system: human rash secondary to urushiol exposure; test: Example 4: treatment of rash caused by urushiol; assay type: in vivo
Method: A human rash, with itching, in progress secondary to contact with an animal known to have had significant exposure to urushiol substances was arrested in 8 hours with 2 applications of aspartame in a Vaseline Intensive Care Lotion base (about 1.2 to 10 mg/ml). The itching ceased, and discomfort and irritation resolved within 8 hours.

[3] = system: allergic contact dermatitis, skin previously exposed to urushiol; test: Example 1: treatment of allergic contact dermatitis with APM in a cream base; assay type: in vivo; conditions: thin film of APM in cream base, after sixty (60) minutes
Text: To an area of skin previously exposed to urushiol is applied a thin film of APM in a cream base. […] Further treatment may include washing the affected area to remove and displace urushiol dissolved in the applied lotion and followed by reapplication of APM containing cream or lotion.

[4] = system: Urushiol-Induced Dermatitis on Human Skin; test: Example 2: prevention of urushiol-induced dermatitis on human skin; assay type: in vivo; conditions: thin film of APM suspended in petroleum cream base applied before exposure
Text: To an area of skin which may be exposed to urushiol is applied a thin film of APM suspended in a petroleum cream base.

[5] = system: capsaicin taste receptor (heat and irritation of the tongue); test: Oral application of APM with capsaicin-containing red pepper sauce; assay type: in vivo
Text: The variability in observable results in preventing dermatitis or topical irritation appear related to the amount of APM that is applied, the time and order of the therapeutic application, and the presence of receptors to which either the irritant oil or APM may bind.

[6] = system: capsaicin burning of the eye; test: Example 7: capsaicin burning of the eye; assay type: in vivo, human; conditions: about 10 mg per 250 microliters in sterile saline applied to eye
Method: A kitchen worker is exposed to capsaicin oil from peppers during cooking preparation, the oil is transferred to their hands and then, by their hands, to their eyes, resulting in a burning sensation and pain. […] The application may be repeated in 15 min because tearing may dilute or wash away the active ingredients.

[7] = system: capsaicin burning and pain of mucosa; test: Example 8: APM after inadvertent mucosal contact with capsaicin cream; assay type: in vivo, human; conditions: preparation of 38 mg APM per 5 ml applied to affected area
Method: A patient is treated for arthritis with a capsaicin cream applied twice daily to the affected joint. Capsaicin is absorbed by the transdermal tissue and then transported to joint area. After an appropriate interval, for instance 2-5 days, significant reduction in swelling, heat, redness, and pain is observed. However, the patient also inadvertently contacts his or her urethra, periurethra tissues, vaginal mucosa, rectal mucosa, eyes, or nose with the capsaicin cream, resulting in a sensation of burning and pain in the affected area.

[8] = cited from earlier work

For `COC(=O)[C@H](Cc1ccccc1)NC(=O)[C@@H](N)CC(=O)O` [APM, N-L-alpha-aspartyl-L-phenylalanine 1-methyl ester] (H-Asp-Phe-OMe), the “rash or reaction observed on the day after application” value [1] was “no rash or reaction had occurred”, the “time in which rash with itching was arrested” value ([2]; 2 applications in Vaseline Intensive Care Lotion base, about 1.2 to 10 mg/ml) was 8 h and the “time in which itching ceased and discomfort and irritation resolved” value ([2]; 2 applications in lotion base, about 1.2 to 10 mg/ml) was ≤ 8 h. The “state of rash overnight” value ([2]; overnight after 2 applications in lotion base) was “the rash was gone”, the “symptoms of allergic contact dermatitis” value [3] was “significantly reduced” and the “symptoms of allergic contact dermatitis” value [4] was “either do not appear or are significantly reduced”. The “perception of spiciness of red pepper sauce” value ([5]; APM applied orally before red pepper sauce) was “absence of recognition of the spicyness”, the “APM response after long duration of exposure to capsaicin” value ([5]; long exposure with secondary effects) was “not as strong nor as quick” and the “response when APM is applied after sensations of heat and irritation developed” value ([5]; red pepper sauce applied to tongue first, APM after) was “manifested and recognized quickly”. For the same molecule, the “burning sensation of the eye” value [6] was “alleviated”, the “burning and pain of affected area” value [7] was “reducing or eliminating the burning and pain” and the “pH at which cyclisation with formation of diketopiperazine occurs in APM solutions” value [8] was “greater than 5”.
